From publication PMC5505960, “A novel STK1-targeted small-molecule as an “antibiotic resistance breaker” against multidrug-resistant Staphylococcus aureus” (Scientific Reports, 2017)

Key:
[1] = target: T1, STK1 (STKK1, soluble kinase domain) (Staphylococcus aureus, UniProt A0ABF7PGK0); assay: inhibition of autophosphorylation of purified STKK1 (gamma-32P-ATP); also elution of STK1 from ATP column; type: biochemical
T1 construct: gene SA1063; His-tag-STKK1, kinase domain with part of the adjacent juxta-membrane domain (1-280 aa)

[2] = target: T1, STK1 (STKK1, soluble kinase domain); assay: inhibition of autophosphorylation of purified STKK1 (gamma-32P-ATP); also elution of purified STKK1 from ATP column; type: biochemical
[3] = test system: WalR-P (STKK1-phosphorylated WalR) (Staphylococcus aureus (ORF numbering of N315; source strain of the clone not stated)); assay: EMSA; settings: scale: fold bound/free ratio vs unphosphorylated WalR

T1 sequence (A0ABF7PGK0 entry or part of it): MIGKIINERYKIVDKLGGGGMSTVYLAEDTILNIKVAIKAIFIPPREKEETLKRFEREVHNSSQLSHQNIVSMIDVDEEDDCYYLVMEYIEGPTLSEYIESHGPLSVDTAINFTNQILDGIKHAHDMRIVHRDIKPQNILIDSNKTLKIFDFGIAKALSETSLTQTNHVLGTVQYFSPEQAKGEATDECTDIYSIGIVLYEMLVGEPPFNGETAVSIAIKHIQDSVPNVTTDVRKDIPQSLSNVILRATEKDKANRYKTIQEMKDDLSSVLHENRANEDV

| Molecule | binding signal [3] | further results |
| --- | --- | --- |
| Cc1ccc(NC(=O)c2sc(=S)n3c2[nH]c(=O)c2ccccc23)c(C)c1 [Inh2, N-(2,4-Dimethylphenyl)-5-oxo-1-thioxo-4,5-dihydro[1,3]thiazolo[3,4-a] quinazoline-3-carboxamide] |  | IC50 [1]: 24.5 µM |
| COC(=O)c1ccc2c(=O)[nH]c3c(C(=O)Nc4ccccc4)sc(=S)n3c2c1 [Inh2-B1, Methyl 5-oxo-3-(phenylcarbamoyl)-1-thioxo-4,5dihydro[1,3]thiazolo[3,4-a]quinazoline-8-carboxylate] |  | IC50 [2]: 49 µM |
| PSA0710 promoter probe (lytE) | > 2 |  |
| PSA2097 promoter probe (ssaA) | > 2 |  |
